In brackets after ≈: the same amount, converted by molar mass. Where two headings read alike, the source gives them in different places. One block for each compound: values may come before it.
Legend:
CpCDPK1 = CpCDPK1 (Cryptosporidium parvum (strain Iowa II), UniProt A3FQ16); test: biochemical; assay type: biochemical
[1] = system: human promyelocytic leukemia (HL-60); test: Growth inhibition of human cell line HL-60
[2] = system: human lymphocyte (CRL8155); test: Growth inhibition of human cell line CRL8155
[3] = system: colorectal carcinoma (HC 2998); test: Growth inhibition of human cell line HC 2998
glioma derived (SF539) = test: Growth inhibition of human cell line SF539
AblKD = AblKD (Homo sapiens (Human), UniProt P00519); test: Tyrosine kinase IC50, AblKD; assay type: biochemical; conditions: Table 9
PfCDPK1 = PfCDPK1 (Plasmodium falciparum (isolate 3D7), UniProt P62344); test: biochemical
[4] = Solubility in buffers of various pH; assay type: physicochemical; conditions: buffer
[5] = Blood levels after oral gavage dosing of mice (LC-MS); conditions: mouse, in vivo, po
HckKD = HckKD (Homo sapiens (Human), UniProt P08631); test: Tyrosine kinase IC50, HckKD; assay type: biochemical; conditions: Table 9
in vivo = conditions: mouse, ip
PfCDPK4 = PfCDPK4 (Plasmodium falciparum (isolate 3D7), UniProt Q8IBS5); test: biochemical
SrcKD = SrcKD (Homo sapiens (Human), UniProt P12931); test: Tyrosine kinase IC50, SrcKD; assay type: biochemical; conditions: Table 9
human fibroblast = test: Human fibroblast replication / cytotoxicity (Alamar blue); assay type: cell-based
C. parvum = test: Immunosuppressed (SCID-beige) mouse C. parvum model; assay type: in vivo, Cryptosporidium parvum; conditions: SCID-beige mice; oral gavage once a day, days 3-7 and 10-14; 29 and 150 at 50 mg/kg/day, Paromomycin 2 g/kg/day
Description: Shown are mean of the parasite numbers detected in 25 mg of stool from each mouse, by qRT-PCR.

[6] = Table 8, read-out: IC50 (μM) CpCDPK1
[7] = aqueous buffer, pH 2.0, read-out: Experimental Solubility pH 2.0
[8] = pH 6.5, aqueous buffer, read-out: Experimental Solubility pH 6.5
[9] = pH 7.4, aqueous buffer, read-out: Experimental Solubility pH 7.4

Compound: CC(C)(C)n1nc(Cc2cccc3ccccc23)c2c(N)ncnc21 [Compound 5d, 1-tert-butyl-3-(naphthalen-1-ylmethyl)-1H-pyrazolo[3,4-d]pyrimidin-4-amine]
IC50 (CpCDPK1; [6]): 0.144 µM
IC50 (CpCDPK1; read-out: CpCDPK1 IC50): 0.14 µM
Cell Toxicity HL60, % at 10 μM [1]: <30% at 10 μM
GI50 ([1]; read-out: GI50 (μM) HL60, human cell line HL60): > 10 µM
Cell Toxicity CRL8155, % at 10 μM [2]: <30% at 10 μM
GI50 ([2]; read-out: GI50 (μM) CRL8155, human cell line CRL8155): > 10 µM
Cell Toxicity HCC2998, % at 10 μM [3]: <30% at 10 μM
GI50 ([3]; read-out: GI50 (μM) HCC2998, human cell line HCC2998): > 10 µM
Cell Toxicity SF539, % at 10 μM (glioma derived (SF539)): <30% at 10 μM
GI50 (glioma derived (SF539); read-out: GI50 (μM) SF539, human cell line SF539): > 10 µM
IC50 (AblKD): 7.7 µM

Compound: COc1ccc2cc(-c3nn(CC4CCNCC4)c4ncnc(N)c34)ccc2c1 [Compound 28, 3-(6-methoxynaphthalen-2-yl)-1-(piperidin-4-ylmethyl)-1H-pyrazolo[3,4-d]pyrimidin-4-amine]
EC50 (PfCDPK1): 739 nM
IC50 (CpCDPK1; [6]): 0.0023 µM
solubility [4, 7]: 49 µM (≈ 19 µg/mL)
solubility [4, 8]: 58 µM (≈ 22.5 µg/mL)
solubility [4, 9]: 56 µM (≈ 21.8 µg/mL)
Cell Toxicity HL60, % at 10 μM [1]: <30% at 10 μM
Cell Toxicity HL60, % at 30 μM [1]: <30% at 30 μM
Cell Toxicity CRL8155, % at 10 μM [2]: <30% at 10 μM
Cell Toxicity CRL8155, % at 30 μM [2]: <30% at 30 μM
Cell Toxicity HCC2998, % at 10 μM [3]: <30% at 10 μM
Cell Toxicity SF539, % at 10 μM (glioma derived (SF539)): <30% at 10 μM
AUC [5]: 20.5 µM·h
Cmax [5]: 4.41 µM
Tmax [5]: 2.67 h
IC50 (HckKD): > 10 µM
AUC (in vivo): 151 µM·h
Cmax (in vivo): 84.1 µM
Tmax (in vivo): 0.667 h
EC50 (PfCDPK4): 18.8 nM
IC50 (AblKD): > 20 µM
IC50 (SrcKD): > 20 µM

Compound: Nc1ncnc2c1c(-c1cnc3ccccc3c1)nn2CC1CCNCC1 [Compound 30, 1-(piperidin-4-ylmethyl)-3-(quinolin-3-yl)-1H-pyrazolo[3,4-d]pyrimidin-4-amine]
IC50 (CpCDPK1; [6]): 0.0837 µM
Cell Toxicity HL60, % at 10 μM [1]: <30% at 10 μM
Cell Toxicity HL60, % at 30 μM [1]: <30% at 30 μM
Cell Toxicity CRL8155, % at 10 μM [2]: <30% at 10 μM
Cell Toxicity CRL8155, % at 30 μM [2]: <30% at 30 μM
Cell Toxicity HCC2998, % at 10 μM [3]: <30% at 10 μM
Cell Toxicity SF539, % at 10 μM (glioma derived (SF539)): <30% at 10 μM
IC50 (AblKD): > 20 µM
IC50 (SrcKD): > 20 µM

Compound: CCCOc1ccc2cc(-c3nn(CC4CCNCC4)c4ncnc(N)c34)ccc2c1 [Compound 33, 1-(piperidin-4-ylmethyl)-3-(6-propoxynaphthalen-2-yl)-1H-pyrazolo[3,4-d]pyrimidin-4-amine]
EC50 (PfCDPK1): 196 nM
Observed HFF Toxicity (T at concentration) (human fibroblast): T at 100 μM
Cell Toxicity HL60, % at 10 μM [1]: <30% at 10 μM
Cell Toxicity CRL8155, % at 10 μM [2]: <30% at 10 μM
Cell Toxicity HCC2998, % at 10 μM [3]: 30% at 10 μM
Cell Toxicity SF539, % at 10 μM (glioma derived (SF539)): <30% at 10 μM
IC50 (HckKD): > 10 µM
EC50 (PfCDPK4): 21.1 nM

Compound: CCCCOc1ccc2cc(-c3nn(CC4CCNCC4)c4ncnc(N)c34)ccc2c1 [Compound 35, 3-(6-butoxynaphthalen-2-yl)-1-(piperidin-4-ylmethyl)-1H-pyrazolo[3,4-d]pyrimidin-4-amine]
EC50 (PfCDPK1): 151 nM
IC50 (CpCDPK1; [6]): 0.0044 µM
Observed HFF Toxicity (T at concentration) (human fibroblast): 25 to 100 µM
solubility [4, 8]: 45 µM (≈ 19.4 µg/mL)
Cell Toxicity HL60, % at 10 μM [1]: <30% at 10 μM
Cell Toxicity CRL8155, % at 10 μM [2]: <30% at 10 μM
Cell Toxicity HCC2998, % at 10 μM [3]: <30% at 10 μM
Cell Toxicity SF539, % at 10 μM (glioma derived (SF539)): <30% at 10 μM
IC50 (HckKD): > 10 µM
EC50 (PfCDPK4): 31.2 nM

Compound: C=CCOc1ccc2cc(-c3nn(CC4CCNCC4)c4ncnc(N)c34)ccc2c1 [Compound 36, 3-(6-(allyloxy)naphthalen-2-yl)-1-(piperidin-4-ylmethyl)-1H-pyrazolo[3,4-d]pyrimidin-4-amine]
EC50 (PfCDPK1): 146 nM
Observed HFF Toxicity (T at concentration) (human fibroblast): T at 100 μM
Cell Toxicity HL60, % at 10 μM [1]: <30% at 10 μM
Cell Toxicity CRL8155, % at 10 μM [2]: <30% at 10 μM
Cell Toxicity HCC2998, % at 10 μM [3]: <30% at 10 μM
Cell Toxicity SF539, % at 10 μM (glioma derived (SF539)): <30% at 10 μM
AUC [5]: 1.83 µM·h
Cmax [5]: 0.59 µM
Tmax [5]: 3.67 h
IC50 (HckKD): > 10 µM
EC50 (PfCDPK4): 15.7 nM

Compound: Nc1ncnc2c1c(-c1ccc3cc(OCc4ccccc4Cl)ccc3c1)nn2CC1CCNCC1 [Compound 37, 3-(6-(2-chlorobenzyloxy)naphthalen-2-yl)-1-(piperidin-4-ylmethyl)-1H-pyrazolo[3,4-d]pyrimidin-4-amine]
EC50 (PfCDPK1): 95.8 nM
Observed HFF Toxicity (T at concentration) (human fibroblast): T at 100 μM
EC50 (PfCDPK4): 71.6 nM

Compound: Nc1ncnc2c1c(-c1ccc3cc(OCc4cccc(Cl)c4)ccc3c1)nn2CC1CCNCC1 [Compound 38, 3-(6-(3-chlorobenzyloxy)naphthalen-2-yl)-1-(piperidin-4-ylmethyl)-1H-pyrazolo[3,4-d]pyrimidin-4-amien]
EC50 (PfCDPK1): 45.2 nM
Observed HFF Toxicity (T at concentration) (human fibroblast): T at 100 μM
Cell Toxicity HL60, % at 10 μM [1]: <30% at 10 μM
Cell Toxicity HL60, % at 30 μM [1]: 98% at 30 μM
Cell Toxicity CRL8155, % at 10 μM [2]: <30% at 10 μM
Cell Toxicity CRL8155, % at 30 μM [2]: 98% at 30 μM
EC50 (PfCDPK4): 34.9 nM

Compound: CC(C)n1nc(-c2ccc3cc(OCc4ccccc4)ccc3c2)c2c(N)ncnc21 [Compound 40, 3-(6-(benzyloxy)naphthalen-2-yl)-1-isopropyl-1H-pyrazolo[3,4-d]pyrimidin-4-amine]
EC50 (PfCDPK1): 96.3 nM
Observed HFF Toxicity (T at concentration) (human fibroblast): T at 100 μM
EC50 (PfCDPK4): 514 nM

Compound: C=CCOc1ccc2cc(-c3nn(C(C)C)c4ncnc(N)c34)ccc2c1 [Compound 41, 3-(6-(allyloxy)naphthalen-2-yl)-1-isopropyl-1H-pyrazolo[3,4-d]pyrimidin-4-amine]
EC50 (PfCDPK1): 36.3 nM
Observed HFF Toxicity (T at concentration) (human fibroblast): T at 100 μM
solubility [4, 8]: 4.4 µM (≈ 1.58 µg/mL)
Cell Toxicity HL60, % at 10 μM [1]: <30% at 10 μM
Cell Toxicity CRL8155, % at 10 μM [2]: <30% at 10 μM
AUC [5]: 52.9 µM·h
Cmax [5]: 13.6 µM
Tmax [5]: 1.67 h
EC50 (PfCDPK4): 19.2 nM

Compound: CCCCOc1ccc2cc(-c3nn(C(C)C)c4ncnc(N)c34)ccc2c1 [Compound 42, 3-(6-butoxynaphthalen-2-yl)-1-isopropyl-1H-pyrazolo[3,4-d]pyrimidin-4-amine]
EC50 (PfCDPK1): 156 nM
Observed HFF Toxicity (T at concentration) (human fibroblast): T at 100 μM
solubility [4, 8]: 4.4 µM (≈ 1.65 µg/mL)
AUC [5]: 40.6 µM·h
Cmax [5]: 10.7 µM
Tmax [5]: 2.67 h
EC50 (PfCDPK4): 308 nM

Compound: CC(C)COc1ccc2cc(-c3nn(CC4CCNCC4)c4ncnc(N)c34)ccc2c1 [Compound 44, 3-(6-isobutoxynaphthalen-2-yl)-1-(piperidin-4-ylmethyl)-1H-pyrazolo[3,4-d]pyrimidin-4-amine]
EC50 (PfCDPK1): 182 nM
Observed HFF Toxicity (T at concentration) (human fibroblast): T at 100 μM
solubility [4, 7]: 47 µM (≈ 20.2 µg/mL)
solubility [4, 8]: 38 µM (≈ 16.4 µg/mL)
solubility [4, 9]: 33 µM (≈ 14.2 µg/mL)
AUC [5]: 2.47 µM·h
Cmax [5]: 0.95 µM
Tmax [5]: 3 h
EC50 (PfCDPK4): 58.3 nM

Compound: CCOc1ccc2cc(-c3nc(C(C)(C)C)n4ccnc(N)c34)ccc2c1 [Compound 69, 3-tert-butyl-1-(6-ethoxynaphthalen-2-yl)imidazo[1,5-a]pyrazin-8-amine]
EC50 (PfCDPK1): 198 nM
Observed HFF Toxicity (T at concentration) (human fibroblast): T at 25 μM
solubility [4, 8]: 3 µM (≈ 1.08 µg/mL)
Cell Toxicity HL60, % at 10 μM [1]: <30% at 10 μM
Cell Toxicity CRL8155, % at 10 μM [2]: <30% at 10 μM
EC50 (PfCDPK4): 132 nM

Compound: Nc1ncnc2c1cnn2CC1CCNCC1 [Compound 99]
IC50 (AblKD): > 10 µM
IC50 (SrcKD): > 10 µM

Compound: Nc1ncnc2c1c(-c1ccc3oc(-c4ccccc4)nc3c1)nn2CC1CCNCC1 [Compound 120]
EC50 (PfCDPK1): 25.5 nM
Observed HFF Toxicity (T at concentration) (human fibroblast): T at 25 μM
solubility [4, 8]: 44 µM (≈ 18.7 µg/mL)
EC50 (PfCDPK4): 214 nM

IC50 (AblKD): > 10 µM
IC50 (SrcKD): > 10 µM
Compound: CC(C)(C)n1ncc2c(N)ncnc21 [Compound 123]

Compound: CC(C)(C)n1nc(-c2ccccc2)c2c(N)ncnc21 [Compound 140]
EC50 (PfCDPK1): 337 nM
solubility [4, 8]: 22 µM (≈ 5.88 µg/mL)
EC50 (PfCDPK4): 399 nM
IC50 (AblKD): 0.636 µM

Compound: NC[C@@H]1O[C@H](O[C@H]2[C@@H](O)[C@H](O[C@@H]3[C@@H](O)[C@H](N)C[C@H](N)[C@H]3O[C@H]3O[C@H](CO)[C@@H](O)[C@H](O)[C@H]3N)O[C@@H]2CO)[C@H](N)[C@@H](O)[C@@H]1O [Paromomycin, reference compound]
parasite burden rebound after treatment (C. parvum): quickly rebounded
parasites in stool (qRT-PCR) at the end of treatment (C. parvum): not detected

From patent US9765037B2, “Compositions and methods for treating toxoplasmosis, cryptosporidiosis, and other apicomplexan protozoan related diseases” (University of Washington Through its Center for …, priority 2010, dated 2017)
